Assay results as given in patent publication US20250171473A1, “Phosphorous Containing BCL Inhibitors and Senolytic Compounds and Uses Thereof” (Rubedo Life Sciences, Inc., priority 2023, published 2025).

How the values were obtained:
Type in all cases: cell-based
senescent A549 cells = assay: Senescence assay, viability of senescent A549 cells (CellTiter-Glo or XTT); settings: Homo sapiens; chemotherapy-induced senescent A549 cells; compounds 24-72 hours; viability relative to untreated control; read-out: Absolute IC50 average A549_SEN IC50
Method: (§1) Cells were maintained in DMEM media (high glucose, 4 mM L-glutamine, no sodium pyruvate) supplemented with 10% fetal bovine serum in a humidified incubator at 37° C. with 5% carbon dioxide. Senescence was induced via treatment with a sublethal concentration of chemotherapy (bleomycin, gemcitabine, doxorubicin, 5-fluorouridine, mitomycin C), followed by a rest period without chemotherapy similarly to what is reported by others in the field (e.g., Aoshiba et al., 2003 Eur Respir J 22:436-443). Senescence was qualified by low EdU (5-ethynyl-2′-deoxyuridine) incorporation and high SA-β-Gal (senescence-associated beta-galactosidase) staining compared to proliferating untreated cells. Senescent cells were plated into 96-well plates at a density of 5-15,000 cells/well. The next day, compounds were added in duplicate across ten different concentrations spanning roughly four Log10 units. Cells were incubated with the compounds for 24-72 hours, at which point viability was quantified using CellTiter-Glo (Promega) or XTT (R&D Systems). The viability for treated cells was determined relative to untreated control cells. The log of the compound concentration vs. normalized mean viability was fit to a four parameters Hill function with variable slope. The bottom was constrained to be greater than zero. The X mean value for Y=50 was interpolated to determine the absolute IC50. The results in Table 1 indicate that many of the compounds are active in cells and can induce a dose dependent decrease in the viability of senescent A549 and IMR90 cells.

senescent IMR90 cells = assay: Senescence assay, viability of senescent IMR90 cells (CellTiter-Glo or XTT); settings: Homo sapiens, IMR-90; chemotherapy-induced senescent IMR90 cells; compounds 24-72 hours; viability relative to untreated control; read-out: Absolute IC50 average IMR90_SEN IC50
Method: as §1

HACAT_SEN = assay: Senescence assay, viability of senescent HACAT cells (CellTiter-Glo or XTT); settings: Homo sapiens, compounds 24-72 hours, viability relative to untreated control, read-out: Absolute IC50 average HACAT_SEN IC50
Method: as §1, with “The results in Table 1 indicate that many of the compounds are active in cells and can induce a dose dependent decrease in the viability of senescent A549 and IMR90 cells.” left out

Row | IC50 (senescent A549 cells) | Structure (SMILES) | IC50 (senescent IMR90 cells) | IC50 (HACAT_SEN)
1 | 0.01 to 0.1 µM | Cc1c(-c2ccc(N3CCc4cccc(C(=O)Nc5nc6ccccc6s5)c4C3)nc2P(C)(=O)O)cnn1CC12CC3CC(CC(C3)C1)C2 [Compound 2, (3-(1-(((3r,5r,7r)-adamantan-1-yl)methyl)-5-methyl-1H-pyrazol-4-yl)-6-(8-(benzo[d]thiazol-2-ylcarbamoyl)-3,4-dihydroisoquinolin-2 (1H)-yl)pyridin-2-yl)(methyl)phosphinic acid] | 0.1 to 1 µM | –
2 | 0.01 to 0.1 µM | Cc1c(-c2ccc(N3CCc4cccc(C(=O)Nc5nc6ccccc6s5)c4C3)nc2P(C)(=O)OCc2ccc(O[C@@H]3O[C@@H](C)[C@@H](O)[C@@H](O)[C@@H]3O)cc2)cnn1CC12CC3CC(CC(C3)C1)C2 (stereo partly drawn) [Compound 3, 4-(((2S,3S,4R,5S,6S)-3,4,5-trihydroxy-6-methyltetrahydro-2H-pyran-2-yl)oxy) benzyl(3-(1-(((3r,5r,7r)-adamantan-1-yl)methyl)-5-methyl-1H-pyrazol-4-yl)-6-(8-(benzo[d]thiazol-2-ylcarbamoyl)-3,4-dihydroisoquinolin-2 (1H)-yl)pyridin-2-yl)(methyl)phosphinate] | 0.1 to 1 µM | –
3 | 0.1 to 1 µM | Cc1cc(N(C)c2nc(P(C)(=O)O)c(CCCOc3ccc(C#CCN(C)C)cc3F)s2)nnc1Nc1nc2ccccc2s1 [Compound 4, (2-((6-(benzo[d]thiazol-2-ylamino)-5-methylpyridazin-3-yl)(methyl)amino)-5-(3-(4-(3-(dimethylamino)prop-1-yn-1-yl)-2-fluorophenoxy)propyl)thiazol-4-yl)(methyl)phosphinic acid] | 1 to 10 µM | –

Row | Structure (SMILES) | IC50 (senescent A549 cells) | IC50 (senescent IMR90 cells) | IC50 (HACAT_SEN)
4 | CCOP(C)(=O)c1nc(N2CCc3cccc(C(=O)Nc4nc5ccccc5s4)c3C2)ccc1-c1cnn(CC23CC4CC(CC(C4)C2)C3)c1C (stereo not drawn) [Compound 1, ethyl(3-(1-(((3r,5r,7r)-adamantan-1-yl)methyl)-5-methyl-1H-pyrazol-4-yl)-6-(8-(benzo[d]thiazol-2-ylcarbamoyl)-3,4-dihydroisoquinolin-2 (1H)-yl)pyridin-2-yl)(methyl)phosphinate] | 0.01 to 0.1 µM | 0.01 to 0.1 µM | < 0.01 µM
